# Results reported in patent US20070066608A1, “Novel indole derivatives with an improved antipsychotic activity” (priority 2003, published 2007).
# Columns and labels:
# [1] = molecular target: T1, Human Dopamine D2L receptor (Homo sapiens, UniProt P14416); assay: Radioligand binding experiment for dopamine D2 receptor (hD2), [3H]Spiperone; conditions: membranes of D2L receptor-transfected CHO cells, read-out: pIC50 D2 (converted)
# T1 construct: expressed in transfected cells; host or cells: CHO cells
# Procedure: (§1) The interaction of the compounds of Formula (I) with dopamine-receptors, h5HT-transporter and h5HT1A receptor was assessed in in vitro radioligand binding experiments. In general, a low concentration of a radioligand with a high binding affinity for a particular receptor or transporter is incubated with a sample of a tissue preparation enriched in a particular receptor or transporter or with a preparation of cells expressing cloned human receptors in a buffered medium. During the incubation, the radioligand binds to the receptor or transporter. When equilibrium of binding is reached, the receptor bound radioactivity is separated from the non-bound radioactivity, and the receptor- or transporter-bound activity is counted The interaction of the test compounds with the receptor is assessed in competition binding experiments. Various concentrations of the test compound are added to the incubation mixture containing the receptor- or transporter preparation and the radioligand. The test compound in proportion to its binding affinity and its concentration inhibits binding of the radioligand.
# Human Dopamine D2L receptor-transfected CHO cells were collected by scraping into ice-cold Tris-HCl buffer ([…], pH 7.4). The suspension was centrifuged (23 500×g, 10 min, 4° C.) and pellets stored at −70° C. until require. They were then thawed and briefly homogenised using an Ultra-Turrax T25 homogeniser prior to dilution to an appropriate protein concentration optimised for specific and non-specific binding. [^3H]Spiperone (NEN, specific activity˜70 Ci/mmol) was diluted in Tris-HCl assay buffer containing NaCl, CaCl2, MgCl2, KCI (50, 120, 2, 1, and 5 mM respectively, adjusted to pH 7.7 with HCl) at a concentration of 2 nmol/L. Prepared radioligand (50 μl) was then incubated (30 min, 37° C.) with membrane preparations pre-diluted to an appropriate protein concentration (400 μl), and with 50 μl of either the 10% DMSO control, Butaclamol (10^−6 mol/L final concentration), or compound of interest. Membrane-bound activity was detected by filtration through a Packard Filtermate harvester onto Unifilterplates, washing with ice-old Tris-HCl buffer (50 mM; pH8.0; 3×4 ml). Filters were allowed to dry before adding scintillation fluid and counting in a Topcount scintillation counter. % Specific bound and competition binding curves were calculated using S-Plus software (Insightful).
# [2] = molecular target: T2, Human Dopamine D3 receptor (Homo sapiens, UniProt P35462); assay: Radioligand binding experiment for dopamine D3 receptor (hD3), [125I]Iodosulpride; conditions: membranes of D3 receptor-transfected CHO cells, read-out: pIC50 D3 (converted)
# T2 construct: expressed in transfected cells; host or cells: CHO cells
# Procedure: as §1
# Human Dopamine D3 receptor-transfected CHO cells were collected by scraping into ice-cold Tris-HCl buffer (50 mM, pH 7.4). The suspension was centrifuged (23 500×g, 10 min, 4° C.) and pellets stored at −70° C. until required. They were then thawed and briefly homogenised using an Ultra-Turrax T25 homogeniser prior to dilution to an appropriate protein concentration optimised for specific and non-specific binding. [^125]Iodosulpride (Amersham, specific activity 2000 Ci/mmol) was diluted in Tris-HCl assay buffer containing NaCl, CaCl2, MgCl2, KCl and BSA (50, 120, 2, 1, 5 mM, 0.1% respectively, adjusted to pH 7.7 with HCl) at a concentration of 2 nmol/L. Prepared radioligand (20 μl) was incubated (60 min, RT) and with 20 μl of either the 10% DMSO control, Risperidone (10^−6 mol/L final concentration), or compound of interest, then with membrane preparations (80 μl). Overnight incubation followed after addition of WGA-coated PVT SPA beads (250 μl; Amersham) and membrane-bound counts measured in a Wallac Microbeta. % Specific bound and competition binding curves were calculated using S-Plus software (Insightful).
# [3] = molecular target: T3, Human Dopamine D4 receptor (Homo sapiens, UniProt P21917); assay: Radioligand binding experiment for dopamine D4 receptor (hD4), [125I]Spiperone; conditions: membranes of D4 receptor-transfected Sf9 cells, read-out: pIC50 D4 (converted)
# T3 construct: expressed in transfected cells; host or cells: Sf9 cells
# T3 sequence (P21917 1-419): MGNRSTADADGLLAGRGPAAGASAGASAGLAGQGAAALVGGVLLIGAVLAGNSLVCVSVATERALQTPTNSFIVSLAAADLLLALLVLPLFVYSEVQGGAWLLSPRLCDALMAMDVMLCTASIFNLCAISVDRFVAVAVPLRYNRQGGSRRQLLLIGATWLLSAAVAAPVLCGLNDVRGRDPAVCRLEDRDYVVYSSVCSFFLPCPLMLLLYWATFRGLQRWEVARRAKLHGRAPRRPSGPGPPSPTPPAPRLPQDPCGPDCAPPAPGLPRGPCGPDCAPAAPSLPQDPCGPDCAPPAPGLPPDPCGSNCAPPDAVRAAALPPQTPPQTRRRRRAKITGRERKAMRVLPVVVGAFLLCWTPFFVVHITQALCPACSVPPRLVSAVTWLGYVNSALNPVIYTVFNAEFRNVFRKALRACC
# Procedure: as §1, with “The test compound in proportion to its binding affinity and its concentration inhibits binding of the radioligand.” left out
# Human Dopamine D4 receptor-transfected Sf9 cells were collected by scraping into ice-cold Tris-HCl buffer (50 mM, pH 7.4). […] Filters were allowed to dry before adding scintillation fluid and counting in a Topcount scintillation counter. % Specific bound and competition binding curves were calculated using S-Plus software (Insightful).
# T2 sequence (P35462 whole entry): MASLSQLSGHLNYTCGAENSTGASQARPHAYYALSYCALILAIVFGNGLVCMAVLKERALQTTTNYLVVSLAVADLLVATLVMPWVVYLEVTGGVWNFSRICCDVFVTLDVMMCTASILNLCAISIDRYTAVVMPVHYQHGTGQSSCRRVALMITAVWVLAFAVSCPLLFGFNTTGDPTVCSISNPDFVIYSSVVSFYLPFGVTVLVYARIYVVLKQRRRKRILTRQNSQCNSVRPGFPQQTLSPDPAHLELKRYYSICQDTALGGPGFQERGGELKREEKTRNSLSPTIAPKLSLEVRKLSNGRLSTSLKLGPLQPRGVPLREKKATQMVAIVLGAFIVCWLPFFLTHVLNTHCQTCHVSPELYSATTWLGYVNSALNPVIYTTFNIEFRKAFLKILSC
# T1 sequence (P14416 whole entry): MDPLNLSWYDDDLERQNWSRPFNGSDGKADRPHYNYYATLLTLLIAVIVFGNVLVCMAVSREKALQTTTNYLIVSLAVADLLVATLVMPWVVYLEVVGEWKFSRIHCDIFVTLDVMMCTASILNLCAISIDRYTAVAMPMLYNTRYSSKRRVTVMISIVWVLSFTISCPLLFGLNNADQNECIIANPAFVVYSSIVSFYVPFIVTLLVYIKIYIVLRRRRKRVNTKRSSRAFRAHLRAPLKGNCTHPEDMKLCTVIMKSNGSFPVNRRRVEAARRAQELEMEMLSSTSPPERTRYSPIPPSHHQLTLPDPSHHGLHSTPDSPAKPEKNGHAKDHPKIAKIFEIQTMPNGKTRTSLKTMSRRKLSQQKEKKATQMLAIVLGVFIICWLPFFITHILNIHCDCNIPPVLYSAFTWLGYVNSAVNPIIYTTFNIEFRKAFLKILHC
structure (smiles),measurement,setting,value
Fc1ccc2[nH]cc(C3=CCN(CC4Oc5cccnc5O4)CC3)c2c1 (stereo not drawn) [Compound 7],IC50,[1],0.251 µM
same,IC50,[2],0.0158 µM
same,IC50,[3],0.501 µM
